From patent US9017689B2, “Peptides for vaccine against birch allergy” (Circassia Limited, priority 2010, dated 2015)
Where two headings read alike, the source gives them in different places. Ends that are not written are not given here.

Assay: Solubility screening in trehalose matrices pH 2.65 to 7.03;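 note: test items are peptides, each checked for solubility in every trehalose matrix, the matrices made up in distilled deionised water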
Format: physicochemical
Conditions: for solubility: read-out: Solubility [mg per ml]
[1] = 2 mM HCl and 260 mM trehalose dihydrate, pH 2.65
[2] = 10 mM potassium dihydrogen phosphate and 260 mM trehalose dihydrate, pH 6.03
[3] = 10 mM potassium dihydrogen phosphate and 260 mM trehalose dihydrate, pH 7.03
[4] = 10 mM sodium citrate and 260 mM trehalose dihydrate, pH 3.01
[5] = 10 mM sodium citrate and 260 mM trehalose dihydrate, pH 3.99
[6] = 10 mM sodium citrate and 260 mM trehalose dihydrate, pH 5.02
[7] = 10 mM sodium citrate and 260 mM trehalose dihydrate, pH 6.01
[8] = aqueous buffer, 10 mM potassium dihydrogen phosphate and 260 mM trehalose dihydrate, pH 6.03
[9] = aqueous buffer, 10 mM potassium dihydrogen phosphate and 260 mM trehalose dihydrate, pH 7.03
[10] = aqueous buffer, 10 mM sodium citrate and 260 mM trehalose dihydrate, pH 3.01
[11] = aqueous buffer, 10 mM sodium citrate and 260 mM trehalose dihydrate, pH 3.99
[12] = aqueous buffer, 10 mM sodium citrate and 260 mM trehalose dihydrate, pH 5.02
[13] = aqueous buffer, 10 mM sodium citrate and 260 mM trehalose dihydrate, pH 6.01
[14] = water, 2 mM HCl and 260 mM trehalose dihydrate, pH 2.65

| Sequence | Comments (solubility on preparation) [1] | Solubility [mg per ml 'as is'] [1] [mg per ml ‘as is’] | Solubility [μmol per ml] [1] [μmol per ml] | Solubility after 24 Hours [1] | Solubility [mg per ml 'as is'] [2] [mg per ml ‘as is’] | Solubility [μmol per ml] [2] [μmol per ml] | Comments (solubility on preparation) [3] | Solubility [mg per ml 'as is'] [3] [mg per ml ‘as is’] | Solubility [μmol per ml] [3] [μmol per ml] | Solubility after 24 Hours [3] | Comments (solubility on preparation) [4] | Solubility [mg per ml 'as is'] [4] [mg per ml ‘as is’] | Solubility [μmol per ml] [4] [μmol per ml] | Solubility after 24 Hours [4] | Solubility [mg per ml 'as is'] [5] [mg per ml ‘as is’] | Solubility [μmol per ml] [5] [μmol per ml] | Solubility [mg per ml 'as is'] [6] [mg per ml ‘as is’] | Solubility [μmol per ml] [6] [μmol per ml] | Comments (solubility on preparation) [7] | Solubility [mg per ml 'as is'] [7] [mg per ml ‘as is’] | further results |
| --- | --- | --- | --- | --- | --- | --- | --- | --- | --- | --- | --- | --- | --- | --- | --- | --- | --- | --- | --- | --- | --- |
| PGTIKKISFPEGFPFKYV [Bir04] | Completely dissolved | 20.50 | 8.639 | Completely dissolved | 9.86 | 4.155 | Completely dissolved | 21.50 | 9.061 | Completely dissolved | Completely dissolved | 22.58 | 9.516 | Completely dissolved | 20.36 | 8.580 | 21.52 | 9.069 | Completely dissolved. | 10.11 | Commute (solubility on preparation) [2]: Completely dissolved; Solubility after 24 Hours [2]: Completely dissolved; Comments (solubility on preparation) [5]: Completely dissolved; Solubility after 24 Hours [5]: Completely dissolved; Comments (solubility on preparation) [6]: Completely dissolved; Solubility after 24 Hours [6]: Completely dissolved; Solubility [μmol per ml] [7]: 4.261 μmol per ml; Solubility after 24 Hours [7]: Completely dissolved.; solubility [8]: ≥ 8540 µg/mL; solubility [9]: ≥ 18600 µg/mL; solubility [10]: ≥ 19600 µg/mL; solubility [11]: ≥ 17600 µg/mL; solubility [12]: ≥ 18600 µg/mL; solubility [13]: ≥ 8760 µg/mL; solubility [14]: ≥ 17800 µg/mL |
| ETLLRAVESYLLAHSDAY [Bir09] | Completely dissolved• | 0.92 | 0.379 | Completely dissolved• | 0.35 | 0.143 | Completely dissolved | 1.52 | 0.627 | Completely dissolved | Undissolved in 1.5 mL• | 0.37 | 0.153 | Undissolved | 0.36 | 0.148 | 0.37 | 0.154 | Completely dissolved | 1.03 | Solubility [mg per ml] [4]: 0.314 mg per ml; Solubility [μmol per ml] [7]: 0.426 μmol per ml; Solubility after 24 Hours [7]: completely dissolved; solubility [8]: ≥ 293 µg/mL; solubility [9]: ≥ 1290 µg/mL; solubility [11]: ≥ 303 µg/mL; solubility [12]: ≥ 315 µg/mL; solubility [13]: ≥ 875 µg/mL; solubility [14]: ≥ 777 µg/mL |
| KEMGETLLRAVESYLLAHS [Bir09B] | Completely dissolved | 12.20 | 4.942 | Completely dissolved | 0.36 | 0.147 | Completely dissolved | 21.70 | 8.790 | Completely dissolved | Completely dissolved | 11.62 | 4.707 | Completely dissolved | 11.40 | 4.618 | 12.75 | 5.165 | – | – | Commute (solubility on preparation) [2]: Completely dissolved in; Solubility after 24 Hours [2]: Precipitated out,; Comments (solubility on preparation) [5]: Completely dissolved; Solubility after 24 Hours [5]: Completely dissolved; Comments (solubility on preparation) [6]: Completely dissolved; Solubility after 24 Hours [6]: Completely dissolved; solubility [8]: ≥ 315 µg/mL; solubility [9]: ≥ 18900 µg/mL; solubility [10]: ≥ 10100 µg/mL; solubility [11]: ≥ 9920 µg/mL; solubility [12]: ≥ 11100 µg/mL; solubility [14]: ≥ 10600 µg/mL |
| KEMGETLLRAVESYLLAHS [BIR09R] | – | – | – | – | – | – | – | – | – | – | – | – | – | – | – | – | – | – | Completely dissolved | 4.92 | Solubility [μmol per ml] [7]: 1.993 μmol per ml; Solubility after 24 Hours [7]: Completely dissolved; solubility [13]: ≥ 4280 µg/mL |
| PAARMFKAFILEGDKLVPK [Bir02J] | Completely dissolved | 23.60 | 9.069 | Completely dissolved | 11.12 | 4.273 | Completely dissolved | 12.31 | 4.730 | Completely dissolved | Completely dissolved in | 0.38 | 0.147 | Precipitated out, | 0.39 | 0.148 | 0.34 | 0.132 | Completely dissolved in | 0.39 | Commute (solubility on preparation) [2]: Completely dissolved; Solubility after 24 Hours [2]: Completely dissolved; Solubility [mg per ml] [4]: 0.314 mg per ml; Comments (solubility on preparation) [5]: Completely dissolved in; Solubility after 24 Hours [5]: Precipitated out,; Comments (solubility on preparation) [6]: Completely dissolved in; Solubility after 24 Hours [6]: Precipitated out,; Solubility [μmol per ml] [7]: 0.150 μmol per ml; Solubility after 24 Hours [7]: Precipitated out,; solubility [8]: ≥ 9110 µg/mL; solubility [9]: ≥ 10100 µg/mL; solubility [11]: ≥ 315 µg/mL; solubility [12]: ≥ 281 µg/mL; solubility [13]: ≥ 320 µg/mL; solubility [14]: ≥ 19300 µg/mL |
| AKYMVIQGEPGRVIRGK [Bir12B] | Completely dissolved | 10.22 | 4.490 | Completely dissolved | 23.84 | 10.474 | Completely dissolved | 20.62 | 9.060 | Completely dissolved | Completely dissolved | 5.47 | 2.403 | Completely dissolved | 10.32 | 4.534 | 5.84 | 2.564 | Completely dissolved. | 2.28 | Commute (solubility on preparation) [2]: Completely dissolved; Solubility after 24 Hours [2]: Completely dissolved; Comments (solubility on preparation) [5]: Completely dissolved; Solubility after 24 Hours [5]: Completely dissolved; Comments (solubility on preparation) [6]: Completely dissolved; Solubility after 24 Hours [6]: Completely dissolved; Solubility [μmol per ml] [7]: 1.002 μmol per ml; Solubility after 24 Hours [7]: Completely dissolved.; solubility [8]: ≥ 19900 µg/mL; solubility [9]: ≥ 17200 µg/mL; solubility [10]: ≥ 4570 µg/mL; solubility [11]: ≥ 8630 µg/mL; solubility [12]: ≥ 4880 µg/mL; solubility [13]: ≥ 1910 µg/mL; solubility [14]: ≥ 8540 µg/mL |
